Reference: US20260258064A1 (SIRONAX LTD., priority 2023, published 2026)

Biological target: T1, SARM1 (50-724) (Homo sapiens, UniProt Q6SZW1)
T1 construct: Purified SARM1 (50-724) with a final concentration of 2 nM was pre-incubated with a test compound
T1 sequence (Q6SZW1 50-724): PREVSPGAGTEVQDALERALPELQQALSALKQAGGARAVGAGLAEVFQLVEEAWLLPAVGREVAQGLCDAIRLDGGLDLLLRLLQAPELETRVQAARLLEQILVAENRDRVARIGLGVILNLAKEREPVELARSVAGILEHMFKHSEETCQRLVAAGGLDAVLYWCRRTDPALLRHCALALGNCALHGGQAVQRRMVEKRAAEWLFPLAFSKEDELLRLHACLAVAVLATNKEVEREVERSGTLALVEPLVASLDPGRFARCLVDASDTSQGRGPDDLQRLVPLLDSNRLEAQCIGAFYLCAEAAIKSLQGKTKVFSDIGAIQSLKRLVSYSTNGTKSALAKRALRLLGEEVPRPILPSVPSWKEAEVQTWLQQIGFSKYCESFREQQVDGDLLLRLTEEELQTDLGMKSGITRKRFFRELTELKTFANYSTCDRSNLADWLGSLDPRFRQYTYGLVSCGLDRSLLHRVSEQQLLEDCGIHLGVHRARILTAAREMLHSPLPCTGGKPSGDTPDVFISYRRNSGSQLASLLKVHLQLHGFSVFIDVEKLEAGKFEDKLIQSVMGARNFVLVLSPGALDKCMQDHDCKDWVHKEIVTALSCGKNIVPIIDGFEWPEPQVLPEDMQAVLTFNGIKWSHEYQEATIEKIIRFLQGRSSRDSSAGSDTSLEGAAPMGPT
Assay: SARM1 (50-724) enzymatic assay (LC-MS/MS)
Format: biochemical
Conditions: Purified SARM1 (50-724) 2 nM, NMN as activator, NAD+ as substrate, 1 h at room temperature, read-out: IC50 (SARM1 inhibitory activity)
Method in brief: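 Human SARM1 (50-724), 2 nM, pre-incubated 15 min at room temperature with compound in Dulbecco's PBS. Reaction started with 200 µM NMN (activator) plus […] NAD^+ substrate, run 1 h at room temperature, quenched with 70% acetonitrile. Turnover quantified by LC-MS/MS; IC50 reported.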

| SMILES | IC50 [nM] |
| --- | --- |
| N#Cc1c(-c2cnccc2-c2cccc(Cl)c2Cl)[nH]c2ccc(C(F)(F)F)cc12 [Example 47, 2-(4-(2,3-dichlorophenyl)pyridin-3-yl)-5-(trifluoromethyl)-1H-indole-3-carbonitrile] | ≤ 100 |
| Cn1cc(-c2cccc(Cl)c2Cl)c(-c2nc3cc(C(F)(F)F)ccc3[nH]2)cc1=O [Example 48] | ≤ 100 |
| N#Cc1c(Cl)ccc2[nH]c(-c3nncn3-c3cccc(Cl)c3Cl)nc12 [Example 50, 5-chloro-2-(4-(2,3-dichlorophenyl)-4H-1,2,4-triazol-3-yl)-1H-benzo[d]imidazole-4-carbonitrile] | 100 to 500 |
| Cc1cc(-c2ccc3[nH]c(-c4nncn4-c4cccc(Cl)c4Cl)nc3c2)[nH]n1 [Example 51, 2-(4-(2,3-dichlorophenyl)-4H-1,2,4-triazol-3-yl)-5-(3-methyl-1H-pyrazol-5-yl)-1H-benzo[d]imidazole] | ≤ 100 |
| CS(=O)(=O)c1cccc(-n2cnnc2-c2nc3cc(C(F)(F)F)ccc3[nH]2)c1 [Example 52] | > 1000 |
| Cn1nc(-n2cnnc2-c2nc3cc(C(F)(F)F)ccc3[nH]2)c(Cl)c1Cl [Example 53, 2-(4-(4,5-Dichloro-1-methyl-1H-pyrazol-3-yl)-4H-1,2,4-triazol-3-yl)-5-(trifluoromethyl)-1H-benzo[d]imidazole] | ≤ 100 |
| O=c1nc(-c2nc3cc(C(F)(F)F)ccc3[nH]2)c(-c2cccc(Cl)c2Cl)c[nH]1 [Example 54] | 100 to 500 |
| Clc1cccc(-n2cnnc2-c2nc3cc(C4COC4)ccc3[nH]2)c1Cl [Example 55, 2-(4-(2,3-dichlorophenyl)-4H-1,2,4-triazol-3-yl)-5-(oxetan-3-yl)-1H-benzo[d]imidazole] | 100 to 500 |
| Clc1cccc(-n2cnnc2-c2nc3cc(-c4cnn[nH]4)ccc3[nH]2)c1Cl [Example 56, 2-(4-(2,3-dichlorophenyl)-4H-1,2,4-triazol-3-yl)-5-(1H-1,2,3-triazol-5-yl)-1H-benzo[d]imidazole] | 100 to 500 |
| FC(F)(F)c1ccc2[nH]c(-c3nccn3-c3cccc(Cl)c3Cl)nc2c1 [Example 57] | 100 to 500 |
| Fc1cccc(-n2cnnc2-c2nc3cc(C(F)(F)F)ccc3[nH]2)c1Cl [Example 59, 2-(4-(2-chloro-3-fluorophenyl)-4H-1,2,4-triazol-3-yl)-5-(trifluoromethyl)-1H-benzo[d]imidazole] | ≤ 100 |
| COc1ccc(-c2cccc(Cl)c2Cl)c(-c2nc3cc(C(F)(F)F)ccc3[nH]2)n1 [Example 60] | > 1000 |
| FC(F)(F)c1ccc2[nH]c(-c3c[nH]nc3-c3cccc(Cl)c3Cl)nc2c1 [Example 61] | 500 to 1000 |
| FC(F)(F)c1ccc2[nH]c(-c3nncn3-c3cccc4nccn34)nc2c1 [Example 62] | > 1000 |
| Cn1nc(Cl)c(Cl)c1-n1cnnc1-c1nc2cc(C(F)(F)F)ccc2[nH]1 [Example 63] | 100 to 500 |
| O=c1cc(-c2nc3cc(C(F)(F)F)ccc3[nH]2)c(-c2cccc(Cl)c2Cl)cn1CCO [Example 64] | ≤ 100 |
| OCCOc1cc(-c2nc3cc(C(F)(F)F)ccc3[nH]2)c(-c2cccc(Cl)c2Cl)cn1 [Example 65] | ≤ 100 |
| Cc1ccnc(-n2cnnc2-c2nc3cc(C(F)(F)F)ccc3[nH]2)c1Cl [Example 66] | ≤ 100 |
| Cc1c(Cl)ccnc1-n1cnnc1-c1nc2cc(C(F)(F)F)ccc2[nH]1 [Example 67] | ≤ 100 |

| SMILES | IC50 [nM] |
| --- | --- |
| Clc1cccc(-n2cnnc2-c2nc3cc(-c4ccn[nH]4)ccc3[nH]2)c1Cl [Example 68, 2-(4-(2,3-dichlorophenyl)-4H-1,2,4-triazol-3-yl)-5-(1H-pyrazol-5-yl)-1H-benzo[d]imidazole] | ≤ 100 |
| FC(F)(F)c1ccc2[nH]c(-c3nncn3-c3cccn4ccnc34)nc2c1 [Example 70] | > 1000 |
| Cc1nccc(-n2cnnc2-c2nc3cc(C(F)(F)F)ccc3[nH]2)c1Cl [Example 71] | 100 to 500 |
| CSc1c(Br)ccc2[nH]c(-c3nncn3-c3cccc(Cl)c3Cl)nc12 [Example 72, 5-bromo-2-(4-(2,3-dichlorophenyl)-4H-1,2,4-triazol-3-yl)-4-(methylthio)-1H-benzo[d]imidazole] | 100 to 500 |
| Clc1cccc(-n2cnnc2-c2nc3cc(-c4cncnc4)ccc3[nH]2)c1Cl [Example 73, 2-(4-(2,3-dichlorophenyl)-4H-1,2,4-triazol-3-yl)-5-(pyrimidin-5-yl)-1H-benzo[d]imidazole] | 100 to 500 |
| Cc1cc(-c2ccc3[nH]c(-c4nncn4-c4cccc(Cl)c4Cl)nc3c2)n(C)n1 [Example 74, 2-(4-(2,3-dichlorophenyl)-4H-1,2,4-triazol-3-yl)-5-(1,3-dimethyl-1H-pyrazol-5-yl)-1H-benzo[d]imidazole] | ≤ 100 |
| Cn1cc(-c2ccccc2Cl)c(-c2nc3cc(C(F)(F)F)ccc3[nH]2)cc1=O [Example 75] | 100 to 500 |
| Cn1cc(-c2cccc(Cl)c2)c(-c2nc3cc(C(F)(F)F)ccc3[nH]2)cc1=O [Example 76] | > 1000 |
| Clc1cccc(-n2cnnc2-c2nc3cc(-c4cncs4)ccc3[nH]2)c1Cl [Example 78, 5-(2-(4-(2,3-dichlorophenyl)-4H-1,2,4-triazol-3-yl)-1H-benzo[d]imidazol-5-yl)thiazole] | 100 to 500 |
| Cn1cc(-c2ccc3[nH]c(-c4nncn4-c4cccc(Cl)c4Cl)nc3c2)cn1 [Example 79, 2-(4-(2,3-dichlorophenyl)-4H-1,2,4-triazol-3-yl)-5-(1-methyl-1H-pyrazol-4-yl)-1H-benzo[d]imidazole] | 100 to 500 |
| Cc1cc(-c2ccc3[nH]c(-c4nncn4-c4cccc(Cl)c4Cl)nc3c2)sn1 [Example 80, 5-(2-(4-(2,3-dichlorophenyl)-4H-1,2,4-triazol-3-yl)-1H-benzo[d]imidazol-5-yl)-3-methylisothiazole] | 100 to 500 |
| Cc1cnn(C)c1-c1ccc2[nH]c(-c3nncn3-c3cccc(Cl)c3Cl)nc2c1 [Example 81, 2-(4-(2,3-dichlorophenyl)-4H-1,2,4-triazol-3-yl)-5-(1,4-dimethyl-1H-pyrazol-5-yl)-1H-benzo[d]imidazole] | 100 to 500 |
| Clc1cc(-c2ccc3[nH]c(-c4nncn4-c4cccc(Cl)c4Cl)nc3c2)[nH]n1 [Example 82, 5-(3-chloro-1H-pyrazol-5-yl)-2-(4-(2,3-dichlorophenyl)-4H-1,2,4-triazol-3-yl)-1H-benzo[d]imidazole] | ≤ 100 |
| Cn1cc(-c2cccc(Cl)c2Cl)c(-c2nc3cc(C(C)(C)O)ccc3[nH]2)cc1=O [Example 83, 5-(2,3-Dichlorophenyl)-4-(5-(2-hydroxypropan-2-yl)-1H-benzo[d]imidazol-2-yl)-1-methylpyridin-2 (1H)-one] | > 1000 |
| Fc1cccc(-n2cnnc2-c2nc3cc(C(F)(F)F)ccc3[nH]2)c1F [Example 84, 2-(4-(2,3-difluorophenyl)-4H-1,2,4-triazol-3-yl)-5-(trifluoromethyl)-1H-benzo[d]imidazole] | ≤ 100 |
| Fc1ccc(-n2cnnc2-c2nc3cc(C(F)(F)F)ccc3[nH]2)c(Cl)c1Cl [Example 85] | ≤ 100 |
| Cn1cc(-c2ccccc2)c(-c2nc3cc(C(F)(F)F)ccc3[nH]2)cc1=O [Example 86] | > 1000 |
| Cc1nnc(-c2nc3cc(C(F)(F)F)ccc3[nH]2)n1-c1cccc(Cl)c1Cl [Example 87, 2-(4-(2,3-dichlorophenyl)-5-methyl-4H-1,2,4-triazol-3-yl)-5-(trifluoromethyl)-1H-benzo[d]imidazole] | ≤ 100 |
